# According to US9284283B2, “Macrocyclic compounds for modulating IL-17” (ENSEMBLE THERAPEUTICS CORPORATION, priority 2012, dated 2016):
# Read-outs that look alike come from different tables or passages of the source.
# What was measured:
# [1] = test system: IL-17A induced secretion of IL-6 in primary human RASF cells; experiment: Inhibition of IL17A induced secretion of IL6 in human rheumatoid arthritis synovial fibroblast (RASF) cells; assay type: cell-based
# Description: This assay was used to determine the extent of inhibition of IL-17A induced secretion of IL-6 in primary human rheumatoid synovial fibroblast (RASF) cells by compounds of the invention. IL-17A is known to stimulate IL-6 production in RASF cells.
# Low passage (passage 2-8) Primary human RASF cells (Asterand) were maintained in maintenance medium. Cells were detached from flasks by tryptic digestion and the cell density of the suspension determined. To each well of a 96 well culture plate was added 100 μL of seeding medium containing 50,000 cells/mL and the plate incubated overnight in a humidified 37° C., 5% CO2 incubator. The medium was replaced with fresh assay medium and cells were incubated for additional 5 hours in a humidified 37° C., 5% CO2 incubator prior to stimulation with recombinant human IL-17A (“rhIL-17A”). Prior to addition to cells, rhIL-17A (30 ng/mL) in assay medium was incubated with either DMSO alone, compounds, or anti-IL17 receptor antibody (3 μg/mL) for 1 hour at 37° C. The final concentration of DMSO in all samples was 0.25%. The final concentration of compounds varied from 0.03 μM to 25 μM.
# Immediately before stimulation, cells were washed once with fresh assay medium. Then, 100 μL of the test samples was added in triplicate wells and the plates incubated for 20 hours in a humidified 37° C., 5% CO2 incubator. The assay medium from each well was collected and the IL-6 concentration in cell culture supernatants was determined by ELISA either immediately or after storage at −20° C.
# A water-soluble tetrazolium salt (WST1) viability assay was immediately performed on the cells after the conditioned medium was collected using a WST1 reagent purchased from Roche. The concentration of IL-6 obtained from ELISA was normalized by the WST1 data.
# [2] = target: T1, biotinylated human IL-17 (binding to IL17R/Fc) (Homo sapiens, UniProt Q16552); experiment: IL-17 competition ELISA II (captured IL17R/Fc, biotinylated IL-17)
# T1 construct: purchased R&D Systems 317-ILB (IL-17, biotinylated); 177-IR (IL17R/Fc)
# T1 sequence (Q16552 20-155 limits assumed): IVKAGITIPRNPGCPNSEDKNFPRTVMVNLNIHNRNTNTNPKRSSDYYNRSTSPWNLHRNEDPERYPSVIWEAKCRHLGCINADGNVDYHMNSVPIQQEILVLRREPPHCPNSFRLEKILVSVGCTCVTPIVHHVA
# Summary of the method: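 Anti-human IgG-coated plates captured IL17R/Fc (10 nM), then compound (5-fold dilutions from 1 μM) and biotinylated human IL-17 (20 nM stock) were added for 30 min at room temperature in PBST. Bound IL-17 detected by streptavidin-HRP/TMB at 450 nm. IC50 from 4-parameter logistic fit between no-competitor and blank controls.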
SMILES,"IC50 ([1]; Homo sapiens, Fibroblast)",IC50 [2],IC50 [1]
CN(C)c1ccc(CC(=O)N[C@@H](Cc2ccccc2Cl)C(=O)Nc2ccc(C[C@H]3NC(=O)CC4(CCCC4)CC(=O)NCCOCCOCCNC3=O)cc2)cc1 [Compound 553],100 to 1000 nM,< 100 nM,
C[C@H]1NC(=O)[C@@H](Cc2ccc(NC(=O)[C@H](Cc3ccccc3Cl)NC(=O)C3(c4ccc(F)cc4)CC3)cc2)NC(=O)CC2(CCCC2)CC(=O)NCCCCCNC1=O [Compound 427],1000 to 10000 nM,< 100 nM,
O=C1CC2(CCCC2)CC(=O)N[C@H](Cc2ccc(NC(=O)[C@H](Cc3ccccc3Cl)NC(=O)Oc3ccccc3)cc2)C(=O)NCCOCCOCCN1 [Compound 571],1000 to 10000 nM,< 100 nM,
O=C1CC2(CCCC2)CC(=O)NC(Cc2ccc(NC(=O)C(Cc3ccccc3Cl)NC(=O)c3cccnc3)cc2)C(=O)NCCOCCOCCN1 (centres unmarked) [Compound 406],,< 100 nM,1000 to 10000 nM
C[C@H]1NC(=O)[C@@H](Cc2ccc(NC(=O)[C@H](Cc3ccccc3Cl)NC(=O)Cc3ccc(F)cc3)cc2)NC(=O)CC2(CCCC2)CC(=O)N(C)CCCCCN(C)C1=O [Compound 488],1000 to 10000 nM,< 100 nM,
O=C1CC2(CCCC2)CC(=O)N[C@H](Cc2ccc(NC(=O)[C@H](Cc3ccc(F)cc3Cl)NC(=O)Cc3ccc(F)cc3)cc2)C(=O)NCCOCCOCCN1 [Compound 502],1000 to 10000 nM,< 100 nM,
Cc1ccccc1C[C@H](NC(=O)Cc1ccc(F)cc1)C(=O)Nc1ccc(C[C@H]2NC(=O)CC3(CCCC3)CC(=O)NCCOCCOCCNC2=O)cc1 [Compound 478],1000 to 10000 nM,< 100 nM,
CN(CCOc1ccc(CC(=O)N[C@@H](Cc2ccccc2Cl)C(=O)Nc2ccc(C[C@H]3NC(=O)CC4(CCCC4)CC(=O)NCCCCCNC(=O)[C@@H](Cc4ccccc4)NC3=O)cc2)cc1)Cc1ccccc1 [Compound 438],100 to 1000 nM,< 100 nM,
CC1NC(=O)C(Cc2ccc(NC(=O)C(Cc3ccccc3Cl)NC(=O)C(F)(F)c3ccccc3)cc2)NC(=O)CC2(CCCC2)CC(=O)N(C)CCCCCN(C)C1=O (centres unmarked) [Compound 566],,< 100 nM,100 to 1000 nM
NC(=O)CC[C@H]1NC(=O)[C@@H](Cc2ccc(NC(=O)[C@H](Cc3ccccc3Cl)NC(=O)Cc3ccc(F)cc3)cc2)NC(=O)CC2(CCCC2)CC(=O)NCCCCCNC1=O [Compound 479],< 100 nM,< 100 nM,
O=C1CC2(CCCC2)CC(=O)N[C@H](Cc2ccc(NC(=O)[C@H](Cc3ccccc3Cl)NC(=O)Cc3ccc(CO)cc3)cc2)C(=O)N[C@H](Cc2c[nH]cn2)C(=O)NCCCC[C@@H](C(=O)O)N1 [Compound 662],< 100 nM,< 100 nM,
C[C@H]1NC(=O)[C@@H](Cc2ccc(NC(=O)[C@H](Cc3ccccc3Cl)NC(=O)Cc3ccc(F)cc3)cc2)NC(=O)CC2(CCCC2)NC(=O)CCNC(=O)CCNC1=O [Compound 593],100 to 1000 nM,< 100 nM,
O=C1CC2(CCCC2)CC(=O)N[C@H](Cc2ccc(NC(=O)[C@H](Cc3ccccc3Cl)NC(=O)Cc3ccc(F)cc3)cc2)C(=O)N[C@H](C2CCCCC2)C(=O)NCCCCCN1 [Compound 425],100 to 1000 nM,< 100 nM,
C[C@H]1NC(=O)[C@@H](Cc2ccc(NC(=O)[C@@H](NC(=O)C(F)(F)c3ccccc3)C3CCCCC3)cc2)NC(=O)CC2(CCCC2)CC(=O)N(C)CCCCCN(C)C1=O [Compound 600],1000 to 10000 nM,< 100 nM,
CN1CCCCCNC(=O)CNC(=O)[C@@H](Cc2ccc(NC(=O)[C@H](Cc3ccccc3Cl)NC(=O)Cc3cccc(O)c3)cc2)NC(=O)CC2(CCCC2)CC1=O [Compound 457],1000 to 10000 nM,< 100 nM,
O=C1CC2(CCCC2)CC(=O)N[C@H](Cc2ccc(NC(=O)[C@H](Cc3ccccc3Cl)NC(=O)Cc3ccc(CO)cc3)cc2)C(=O)N[C@@H](CO)C(=O)NCCCC[C@@H](C(=O)O)N1 [Compound 455],< 100 nM,< 100 nM,
O=C1CC2(CCCC2)CC(=O)N[C@H](Cc2ccc(NC(=O)[C@H](Cc3ccccc3Cl)NC(=O)c3ccccc3)cc2)C(=O)NCCOCCOCCN1 [Compound 522],1000 to 10000 nM,< 100 nM,

SMILES,"IC50 ([1]; Homo sapiens, Fibroblast)",IC50 [2],IC50 [1]
O=C1CC2(CCCC2)CC(=O)N[C@H](Cc2ccc(NC(=O)[C@H](Cc3ccccc3Cl)NC(=O)Cc3ccc(F)cc3)cc2)C(=O)NCCOCCOCCN1 [Compound 490],1000 to 10000 nM,< 100 nM,
O=C1CC2(CCCC2)CC(=O)N[C@H](Cc2ccc(NC(=O)[C@H](Cc3ccccc3Cl)NC(=O)Cc3ccc(CO)cc3)cc2)C(=O)N[C@H](Cc2c[nH]c3ccccc23)C(=O)NCCCC[C@@H](C(=O)O)N1 [Compound 661],< 100 nM,< 100 nM,
C[C@H]1NC(=O)[C@@H](Cc2ccc(NC(=O)[C@H](Cc3ccccc3Cl)Nc3nc4ccccc4o3)cc2)NC(=O)CC2(CCCC2)CC(=O)NCCCCCNC1=O [Compound 555],< 100 nM,< 100 nM,
C[C@H]1NC(=O)[C@@H](Cc2ccc(NC(=O)[C@H](Cc3ccccc3Cl)NC(=O)Cc3ccc(F)cc3)cc2)NC(=O)CC2(CCCC2)CC(=O)N[C@H](C(=O)O)CCCCNC1=O [Compound 529],< 100 nM,< 100 nM,
Cc1ccccc1CC(=O)N[C@@H](Cc1ccccc1Cl)C(=O)Nc1ccc(C[C@H]2NC(=O)CC3(CCCC3)CC(=O)NCCOCCOCCNC2=O)cc1 [Compound 495],1000 to 10000 nM,< 100 nM,
CN1CCCCCN(C)C(=O)[C@@H](CCC(N)=O)NC(=O)[C@@H](Cc2ccc(NC(=O)[C@@H](NC(=O)Cc3ccc(N(C)C)cc3)C3CCCCC3)cc2)NC(=O)CC2(CCCC2)CC1=O [Compound 626],100 to 1000 nM,< 100 nM,
O=C1CNC(=O)[C@@H](Cc2ccc(NC(=O)[C@H](Cc3ccc(F)cc3Cl)NC(=O)Cc3ccc(F)cc3)cc2)NC(=O)CC2(CCCC2)CC(=O)NCCCCCN1 [Compound 388],< 100 nM,< 100 nM,
O=C1CC2(CCCC2)CC(=O)N[C@H](Cc2ccc(NC(=O)[C@H](Cc3ccccc3Cl)NC(=O)Cc3ccc(F)cc3)cc2)C(=O)N[C@H](CC2CCCCC2)C(=O)NCCCCCN1 [Compound 499],100 to 1000 nM,< 100 nM,
C[C@H]1NC(=O)[C@@H](Cc2ccc(NC(=O)[C@H](Cc3ccccc3Cl)NC(=O)Cc3ccc(CO)cc3)cc2)NC(=O)CC2(CCCC2)CC(=O)NCCCCCNC1=O [Compound 487],< 100 nM,< 100 nM,
CN1CCCCCN(C)C(=O)[C@@H](CCC(N)=O)NC(=O)[C@@H](Cc2ccc(NC(=O)[C@@H](NC(=O)Cc3ccc(CO)cc3)C3CCCCC3)cc2)NC(=O)CC2(CCCC2)CC1=O [Compound 653],1000 to 10000 nM,< 100 nM,
C[C@H]1NC(=O)[C@@H](Cc2ccc(NC(=O)[C@@H](NC(=O)Cc3ccc(N(C)C)cc3)C3CCCCC3)cc2)NC(=O)CC2(CCCC2)CC(=O)N(C)CCCCCN(C)C1=O [Compound 601],1000 to 10000 nM,< 100 nM,
C[C@H]1NC(=O)[C@@H](Cc2ccc(NC(=O)[C@H](Cc3ccccc3Cl)NC(=O)C(F)(F)c3ccccc3)cc2)NC(=O)CC2(CCCC2)CC(=O)N(C)CCN(C)CCN(C)C1=O [Compound 540],1000 to 10000 nM,< 100 nM,
CN1CCCCCN(C)C(=O)[C@@H](CCC(N)=O)NC(=O)[C@@H](Cc2ccc(NC(=O)[C@H](Cc3ccccc3Cl)NC(=O)C(F)(F)c3ccccc3)cc2)NC(=O)CC2(CCCC2)CC1=O [Compound 645],100 to 1000 nM,< 100 nM,
CN1C(=O)CC2(CCCC2)CC(=O)NCCCCCNC(=O)CNC(=O)[C@H]1Cc1ccc(NC(=O)[C@H](Cc2ccccc2Cl)NC(=O)Cc2ccccc2)cc1 [Compound 413],> 10000 nM,< 100 nM,
O=C1CC2(CCCC2)CC(=O)N[C@H](Cc2ccc(NC(=O)[C@@H](NC(=O)Cc3ccc(F)cc3)C3CCCCC3)cc2)C(=O)NCCOCCOCCN1 [Compound 424],> 10000 nM,< 100 nM,
NC(=O)C[C@H]1NC(=O)[C@@H](Cc2ccc(NC(=O)[C@H](Cc3ccccc3Cl)NC(=O)Cc3ccc(CO)cc3)cc2)NC(=O)CC2(CCCC2)CC(=O)N[C@H](C(=O)O)CCCCNC1=O [Compound 656],< 100 nM,< 100 nM,
Cc1ccccc1C[C@H](NC(=O)Cc1ccc(F)cc1)C(=O)Nc1ccc(C[C@H]2NC(=O)CC3(CCCC3)CC(=O)NCCCCCNC(=O)[C@@H](CCC(N)=O)NC2=O)cc1 [Compound 515],< 100 nM,< 100 nM,
